Laboratory results as given in patent US5550128A, “Enantiomers of gamma methylene 10-deaza aminopterin and process for preparing the same” (priority 1994, dated 1996).

Tests used:
[1] = target: T1, Recombinant Human Dihydrofolate Reductase (Homo sapiens, UniProt P00374); test: Inhibition of recombinant human dihydrofolate reductase, spectrophotometric enzyme assay; format: biochemical
T1 sequence (P00374 1-187): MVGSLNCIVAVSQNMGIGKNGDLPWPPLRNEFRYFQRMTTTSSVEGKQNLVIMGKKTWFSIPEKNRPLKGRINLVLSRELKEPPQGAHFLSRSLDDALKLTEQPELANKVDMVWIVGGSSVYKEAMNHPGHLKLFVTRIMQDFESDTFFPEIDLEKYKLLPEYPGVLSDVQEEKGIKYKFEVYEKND
Description: Enzyme assay was performed spectrophotometrically in a solution containin
50 μM dihydrofolate, 80 μM NADPH, 0.05 M Tris HCl. 0.01 M
2mercaptoethanol and 0.001 M EDTA at pH 7.4 at 30°. The reaction
Pure human recombinant enzyme was used.

[2] = system: transport of radiolabeled folinic acid to H35 hepatoma cells; test: Inhibition of transport of radiolabeled folinic acid to H35 hepatoma cells; format: cell-based
Description: (§1) Independent, further evidences to the identity of L-MDAM as the biologically active enantiomer of the racemic mixture of D,L-MDAM (previously described as MDAM; Ref, U.S. Pat. No. 4,996,207) was obtained by the following data. […] The cytotoxicity of L-MDAM versus D,L-MDAM was also compared. […] The l50 value for growth inhibition (Gl50) was 39 nM for D,L-MDAM. […] Taken together, these unexpected and novel results establish that the biologically active compound present in the racemic mixture of MDAM is the L-enantiomer described in claim number 1.

H35 hepatoma cells = test: Growth inhibition of H35 hepatoma cells in culture; format: cell-based
Description: as §1

786-O (renal cancer) = test: Human Disease Oriented in vitro Antitumor Screen; format: cell-based; settings: 786-0, 786-O (Table 5), read-out: Gl50 (the source's name)
Description: (§2) Further, by analogy to methotrexate (rheumatrex) L-MDAM should be useful in the treatment of autoimmune diseases such as rheumatoid arthritis and inflammatory diseases such as asthma.
(§3) A 48 h continuous drug exposure protocol was used combined with an SR13
(§4) protein assay to estimate cell growth or viability.

ACHN (renal cancer) = test: Human Disease Oriented in vitro Antitumor Screen; format: cell-based; settings: ACHN (Table 5), read-out: Gl50 (the source's name)
Description: as §2, §3, §4

CCRF-CEM (leukemia) = test: Human Disease Oriented in vitro Antitumor Screen; format: cell-based; settings: CCRF-CEM (Table 5), read-out: Gl50 (the source's name)
Description: as §2, §3, §4

HCT-116 (colon cancer) = test: Human Disease Oriented in vitro Antitumor Screen; format: cell-based; settings: HCT-116 (Table 5), read-out: Gl50 (the source's name)
Description: as §2, §3, §4

HL-60 (TB) (leukemia) = test: Human Disease Oriented in vitro Antitumor Screen; format: cell-based; settings: HL-60 TB (Table 5), read-out: Gl50 (the source's name)
Description: as §2, §3, §4

HT-29 (colon cancer) = test: Human Disease Oriented in vitro Antitumor Screen; format: cell-based; settings: HT-29 (Table 5), read-out: Gl50 (the source's name)
Description: as §2, §3, §4

LOX IM VI (melanoma) = test: Human Disease Oriented in vitro Antitumor Screen; format: cell-based; settings: LOX IMVI, LOX MI VI (Table 5), read-out: Gl50 (the source's name)
Description: as §2, §3, §4

MOLT-4 (leukemia) = test: Human Disease Oriented in vitro Antitumor Screen; format: cell-based; settings: MOLT-4 (Table 5), read-out: Gl50 (the source's name)
Description: as §2, §3, §4

OVCAR-8 (ovarian cancer) = test: Human Disease Oriented in vitro Antitumor Screen; format: cell-based; settings: OVCAR-8 (Table 5), read-out: Gl50 (the source's name)
Description: as §2, §3, §4

SF-268 = test: Human Disease Oriented in vitro Antitumor Screen; format: cell-based; settings: SF-268 (Table 5), read-out: Gl50 (the source's name)
Description: as §2, §3, §4

SF-295 = test: Human Disease Oriented in vitro Antitumor Screen; format: cell-based; settings: SF-295 (Table 5), read-out: Gl50 (the source's name)
Description: as §2, §3, §4

SF-539 = test: Human Disease Oriented in vitro Antitumor Screen; format: cell-based; settings: SF-539 (Table 5), read-out: Gl50 (the source's name)
Description: as §2, §3, §4

SR (leukemia) = test: Human Disease Oriented in vitro Antitumor Screen; format: cell-based; settings: SR (Table 5), read-out: Gl50 (the source's name)
Description: as §2, §3, §4

SW-620 (colon cancer) = test: Human Disease Oriented in vitro Antitumor Screen; format: cell-based; settings: SW-620 (Table 5), read-out: Gl50 (the source's name)
Description: as §2, §3, §4

DU 145 (prostate cancer) = test: Human Disease Oriented in vitro Antitumor Screen; format: cell-based; settings: DU 145 (Table 5), read-out: Gl50 (the source's name)
Source text: (§5) It is also active against the adriamycin resistant MCF-7 human breast cancer cells (Gl50 -=74×10^-9).
(§6) Human Disease Oriented in vitro Antitumor Screen

HCT-15 (colon cancer) = test: Human Disease Oriented in vitro Antitumor Screen; format: cell-based; settings: HCT-15 (Table 5), read-out: Gl50 (the source's name)
Source text: as §5, §6

[3] = system: HOP-62 (non-small cell lung cancer); test: Human Disease Oriented in vitro Antitumor Screen; format: cell-based; settings: HOP-62 (Table 5), read-out: Gl50 (the source's name)
Source text: as §5, §6

IGROVI (ovarian cancer) = test: Human Disease Oriented in vitro Antitumor Screen; format: cell-based; settings: IGROVI (Table 5), read-out: Gl50 (the source's name)
Source text: as §5, §6

M14 (melanoma) = test: Human Disease Oriented in vitro Antitumor Screen; format: cell-based; settings: M14 (Table 5), read-out: Gl50 (the source's name)
Source text: as §5, §6

MCF-7 (breast cancer) = test: Human Disease Oriented in vitro Antitumor Screen; format: cell-based; settings: MCF7, MCF-7 (Table 5), read-out: Gl50 (the source's name)
Source text: as §5, §6

[4] = system: MDA-MB-231/ATCC (breast cancer); test: Human Disease Oriented in vitro Antitumor Screen; format: cell-based; settings: MDA-MB-231/ATCC (Table 5), read-out: Gl50 (the source's name)
Source text: as §5, §6

MDA-N (breast cancer) = test: Human Disease Oriented in vitro Antitumor Screen; format: cell-based; settings: MDA-N (Table 5), read-out: Gl50 (the source's name)
Source text: as §5, §6

[5] = system: NCI-H460 (non-small cell lung cancer); test: Human Disease Oriented in vitro Antitumor Screen; format: cell-based; settings: NCI-H460 (Table 5), read-out: Gl50 (the source's name)
Source text: as §5, §6

OVCAR-5 (ovarian cancer) = test: Human Disease Oriented in vitro Antitumor Screen; format: cell-based; settings: OVCAR-5 (Table 5), read-out: Gl50 (the source's name)
Source text: as §5, §6

RPMI-8226 (leukemia) = test: Human Disease Oriented in vitro Antitumor Screen; format: cell-based; settings: RPMI-8226 (Table 5), read-out: Gl50 (the source's name)
Source text: as §5, §6

SN-12C (renal cancer) = test: Human Disease Oriented in vitro Antitumor Screen; format: cell-based; settings: SN12C, SN-12C (Table 5), read-out: Gl50 (the source's name)
Source text: as §5, §6

TK-10 (renal cancer) = test: Human Disease Oriented in vitro Antitumor Screen; format: cell-based; settings: TK-10 (Table 5), read-out: Gl50 (the source's name)
Source text: as §5, §6

U-251 (CNS cancer) = test: Human Disease Oriented in vitro Antitumor Screen; format: cell-based; settings: U-251 (Table 5), read-out: Gl50 (the source's name)
Source text: as §5, §6

ZIACC-62 (melanoma) = test: Human Disease Oriented in vitro Antitumor Screen; format: cell-based; settings: ZIACC-62 (Table 5), read-out: Gl50 (the source's name)
Source text: as §5, §6

[6] = system: adriamycin resistant MCF-7 human breast cancer cells (MCF-7/ADR-RBS); test: Human Disease Oriented in vitro Antitumor Screen, adriamycin resistant cells; format: cell-based; settings: MCF7, read-out: Gl50 (the source's name)
Source text: as §5, §6

[7] = system: human tumor cell lines in culture; test: Human Tumor Disease Oriented in vitro screen, panel as a whole; format: cell-based; settings: relative to methotrexate, or enantiomer comparison
Description: as §2, §3, §4

[8] = system: Human HCT-8 Ileocecal Xenograft; test: Antitumor activity by I.V. push, daily × 5, against human HCT-8 ileocecal xenograft
Source text: [M. G. Nair and Ann Abraham, U.S. Pat. No. 4,996,207 (1991); M. G. Nair, U.S. Pat. No. 5,073,554 (1991 )]. […] [Ann Abraham, M. G. Nair, et al. Advanced in Exp. Med. and Biol. 663-666 (1993)].
MIR: Maximum inhibitory rate. TD: Tumor doubling time.
CR: Complete Regression. PR Partial Regression.
(§7) MWL: Maximum Weight Loss.

[9] = Antitumor activity by continuous i.v. infusion (C.I.) × 5d against human HCT-8 ileocecal xenograft; format: in vivo, human (xenograft in nude mice); settings: mouse, in vivo, iv; 0.25 mg/kg, C.I. × 5d; read-out: death
Source text: (§8) Antitumor Activity of MDAM by C.I. × 5d
(§9) against HUMAN HCT-8 Ileocecal Xenograft
(§10) MIR: Maximum inhibitory rate.
(§11) TD: Tumor doubling time.
(§12) CR: Complete Regression.
(§13) PR: Partial Regression.
as §7

[10] = system: Human HCT-8 Ileocecal Xenograft; test: as above; format: in vivo, human (xenograft in nude mice); settings: for CR: Complete Regression / MIR: Maximum inhibitory rate / PR: Partial Regression / TD: Tumor doubling time: C.I. × 5d
Source text: as §8, §9, §10, §11, §12, §13, §7

Structure (SMILES): C=C(C[C@H](NC(=O)c1ccc(CCc2cnc3nc(N)nc(N)c3n2)cc1)C(=O)O)C(=O)O [L-MDAM, 4-amino-4-deoxy-10-deazapteroyl-γ-methylene-L-glutamic acid]
- IC50 ([1]; 50 μM dihydrofolate, 80 μM NADPH, pH 7.4, 30°): 0.022 µM
- IC50 Compound/IC50 MTX ([1]; ratio to MTX): 1.29
- DHFR inhibitory activity (comparison in words) ([1]; relative to MTX or D,L-MDAM): exactly twice as active as D,L-MDAM
- IC50 ([2]; H35 hepatoma cells, read-out: l50 value, inhibition of transport of radiolabeled folinic acid): 2.3 µM
- reduction in l50 value (transport) versus D,L-MDAM ([2]; L-MDAM versus D,L-MDAM): approximately one-half
- cytotoxicity versus D,L-MDAM (H35 hepatoma cells; H35 hepatoma cells): Dramatic and unexpected potentiation of activity
- IC50 (H35 hepatoma cells; H35 hepatoma cells in culture, identical conditions, read-out: l50 value for growth inhibition (Gl50)): 0.008 µM
- IC50 (786-O (renal cancer)): < 0.01 µM
- IC50 (ACHN (renal cancer)): < 0.01 µM
- IC50 (CCRF-CEM (leukemia)): < 0.01 µM
- IC50 (HCT-116 (colon cancer)): < 0.01 µM
- IC50 (HL-60 (TB) (leukemia)): < 0.01 µM
- IC50 (HT-29 (colon cancer)): < 0.01 µM
- IC50 (LOX IM VI (melanoma)): < 0.01 µM
- IC50 (MOLT-4 (leukemia)): < 0.01 µM
- IC50 (OVCAR-8 (ovarian cancer)): < 0.01 µM
- IC50 (SF-268): < 0.01 µM
- IC50 (SF-295): < 0.01 µM
- IC50 (SF-539): < 0.01 µM
- IC50 (SR (leukemia)): < 0.01 µM
- IC50 (SW-620 (colon cancer)): < 0.01 µM
- IC50 (DU 145 (prostate cancer)): < 0.01 µM
- IC50 (HCT-15 (colon cancer)): < 0.01 µM
- IC50 [3]: < 0.01 µM
- IC50 (IGROVI (ovarian cancer)): < 0.01 µM
- IC50 (M14 (melanoma)): < 0.01 µM
- IC50 (MCF-7 (breast cancer)): < 0.01 µM
- IC50 [4]: < 0.01 µM
- IC50 (MDA-N (breast cancer)): < 0.01 µM
- IC50 [5]: < 0.01 µM
- IC50 (OVCAR-5 (ovarian cancer)): < 0.01 µM
- IC50 (RPMI-8226 (leukemia)): < 0.01 µM
- IC50 (SN-12C (renal cancer)): < 0.01 µM
- IC50 (TK-10 (renal cancer)): < 0.01 µM
- IC50 (U-251 (CNS cancer)): < 0.01 µM
- IC50 (ZIACC-62 (melanoma)): < 0.01 µM
- IC50 [6]: 0.074 µM
- activity/potency in inhibiting growth of human tumor cell lines (in words) [7]: biologically active enantiomer of D,L-MDAM

Structure (SMILES): CN(Cc1cnc2nc(N)nc(N)c2n1)c1ccc(C(=O)N[C@@H](CCC(=O)O)C(=O)O)cc1 [MTX, methotrexate, reference compound]
- CR: Complete Regression ([8]; 1 mg/kg, i.v. push daily × 5): 0%
- MIR: Maximum inhibitory rate ([8]; 1 mg/kg, i.v. push daily × 5): 29.8 ± 8.6%
- MWL: Maximum Weight Loss ([8]; 1 mg/kg, i.v. push daily × 5): 14.0 ± 3.0%
- PR: Partial Regression ([8]; 1 mg/kg, i.v. push daily × 5): 0%
- TD: Tumor doubling time ([8]; 1 mg/kg, i.v. push daily × 5): 4.6 ± 0.6 days
- measurable antitumor activity ([8]; iv push, HCT-8 xenograft): did not exhibit any measurable antitumor activity
- mortality [9]: 100%
- CR: Complete Regression ([10]; 0.1 mg/kg): 0%
- MIR: Maximum inhibitory rate ([10]; 0.1 mg/kg): 50.6 ± 9.6%
- PR: Partial Regression ([10]; 0.1 mg/kg): 0%
- TD: Tumor doubling time ([10]; 0.1 mg/kg): 4.8 ± 0.4 days
- CR: Complete Regression ([10]; 0.2 mg/kg): 0%
- MIR: Maximum inhibitory rate ([10]; 0.2 mg/kg): 52.8 ± 8.5%
- PR: Partial Regression ([10]; 0.2 mg/kg): 0%
- TD: Tumor doubling time ([10]; 0.2 mg/kg): 5 ± 0.5 days
- CR: Complete Regression ([10]; 0.25 mg/kg): 0%
- PR: Partial Regression ([10]; 0.25 mg/kg): 0%
- measurable antitumor activity ([10]; continuous 5 day iv infusion, HCT-8 xenograft): did not exhibit any measurable antitumor activity
